Active and inactive are the calls of the source. No cut-off for these calls is given here.
Tested on: COLO 201
Test: Cytotoxicity against human COLO201 cells assessed as inhibition of cell growth incubated for 24 hrs by WST-1 assay
Assay type: functional, cell-based
Settings: for IC50: COLO 201, 24 h

Row | SMILES | IC50 [µM] | Activity
1 | Cc1ccc(O)c2c1C(=O)[C@](C)(Oc1ccc(O)c3c1[C@@H](O)CCC31Oc3cccc4cccc(c34)O1)O2 | 23 | –
2 | CC[C@@]1(O)C(=O)OCc2c1cc1n(c2=O)Cc2cc3ccccc3nc2-1 [CAMPTOTHECIN] | 34 | –
3 | Cc1ccc(O)c2c1C(=O)[C@@](C)(Oc1ccc(O)c3c1[C@@H](O)CCC31Oc3cccc4cccc(c34)O1)O2 | 17 | –
4 | C[C@@H]1C=C[C@@]2(O)[C@@H]3OC(=O)[C@@](O)([C@H]13)[C@@H]2Oc1ccc(O)c2c1C(=O)CCC21Oc2cccc3cccc(c23)O1 | – | inactive
5 | Oc1ccc(O)c2c1[C@@H](O)CCC21Oc2cccc3cccc(c23)O1 | – | inactive
